From US11865090B2, “Tumor suppressive microRNAs for cancer therapy” (Hadasit Medical Research Services and Development Ltd., priority 2018, dated 2024)

Tests used:
miR-122 [1] = experiment: qRT-PCR of miR-122 in medium of Huh7 cells; assay type: cell-based, human; details: 10 μM for 24 hours, normalized to spiked miR-39
Method: Shown in FIG. 4C is qRT-PCR analysis of miR-122 and miR-18 (negative control) in RNA extracted from the medium of Huh7 cells treated with 0.4% DMSO, 75 μM lauric acid (LA) or 10 μM RORα agonist (SR1078) for 24 hours. The microRNA levels in the cells' medium were normalized to spiked C. elegance miR-39.

miR-122 promoter [2] = experiment: miR-122 promoter luciferase reporter (PmiR-122-900) in BNL-1ME cells; assay type: cell-based, mouse; details: 10 μM overnight, measured 48 hours post transfection, normalized to Renilla
Method: (§1) Huh7 cells or BNL-1ME cells were transfected with the reporter constructs PmiR-122-900 (wt) or PmiR-122-900 mutated (mut) at RORα binding site. These constructs harbour about 1 kb of miR-122 promoter sequence (wt or mutated at the ROR alpha binding site), ligated to a luciferase (Luc) reporter gene. […] Controls included incubation of the cells with 0.4% DMSO (negative control), or with 75 μM Lauric acid (LA), which is a known activator of ROR-alpha. Luciferase activity was measured 48 hours post transfection and normalized to Renilla Luciferase activity expressed from a co-transfected pRL plasmid.

miR-122 [3] = experiment: In vivo miR-122 and CD24 mRNA levels after injection into MDR2 knockout mice; details: three months old MDR2 KO mice, 6 hours after administration
Method: Similar effect is also apparent in measurements performed 6 hours after administration of the inducing agent, to three months old MDR2 knockout (KO) mice (which is a mice that develops liver cancer). This is presented in FIGS. 8C-D, which show the increase in relative levels of miR-122 (FIG. 8C) in liver extracts (hepatocytes) and the reciprocal reduction of CD24 relative expression levels (FIG. 8D), in progenitor cells.

miR-122 promoter [4] = experiment: miR-122 promoter luciferase reporter (PmiR-122-900) in Huh7 cells; assay type: cell-based, human; details: 10 μM overnight, measured 48 hours post transfection, normalized to Renilla
Method: as §1

miR-34a = miR-34a expression and secretion in Huh7 cells (RT-qPCR); assay type: cell-based, human; details: 10 μM overnight
Method: Huh7 cells treated with ROR-alpha agonist SR1078 (10 μM) overnight (o/n). Upon treatment, primary miR-34a expression levels and mature miR-34a secretion were elevated. miR-34a levels were tested in the cells and in their culture medium using RT-qPCR. The results clearly show elevation in the levels of miR-34a in the cells, as well as a marked elevation of the miR-34a in the external medium, indicating the miR-34a is secreted from the cells.

miR-122 [5] = experiment: In vivo miR-122 and CD24 mRNA levels after injection into BALB/C mice
Method: As shown in FIG. 8A—SR1078 agent (ROR alpha activator) was injected (1-5 μM) into BALB/C mice and was able to induce miR-122 expression within 3 hours, as indicated by the increased relative expression levels of miR-122 in the liver. miRNA-122 increased expression is in hepatocytes (“producing cells”).
The CD24 gene, the protein product of which is expressed on hepatic progenitors, is a target of miR-122.

miR-122 [6] = experiment: AGPAT1-3'UTR (miR-122 target site) luciferase reporter in Huh7 cells; assay type: cell-based, human; details: 10 μM for 24 hours, DNMT1 3'-UTR as negative control
Method: Next, Huh7 cells were transfected with a reporter plasmid carrying the human AGPAT1-3′UTR (miR-122 target site) or a negative control reporter plasmid, DNMT1 3′-UTR. Cells were treated for 24 hours with: 0.4% DMSO, or with 75 μM lauric acid (LA) or with RORα agonist (10 μM SR1078) for 24 hours. Presented in FIG. 4B are bar graphs showing the results of the Luciferase assay. Luciferase activity was measured 48 hours post transfection and normalized to Renilla Luciferase activity expressed from a co-transfected pRL plasmid.

SMILES: O=C(Nc1ccc(C(O)(C(F)(F)F)C(F)(F)F)cc1)c1ccc(C(F)(F)F)cc1 [SR1078]
- miRNA-122 levels in the medium (miR-122 [1]): increase
- miR-122 promoter activity (Luciferase reporter) (miR-122 promoter [2]): activation of the miR-122 promoter
- CD24 relative expression levels in progenitor cells (miR-122 [3]): reduction
- relative levels of miR-122 in liver extracts (hepatocytes) (miR-122 [3]): increase
- miR-122 promoter activity (Luciferase reporter) (miR-122 promoter [4]): activation of the miR-122 promoter
- mature miR-34a secretion (miR-34a; RT-qPCR in culture medium): elevated
- primary miR-34a expression levels (miR-34a; RT-qPCR in the cells): elevated
- relative levels (RQ) of mRNA of CD24 in hepatic progenitor cells (miR-122 [5]; after injection of SR1078): reduced
- relative expression levels of miR-122 in the liver (miR-122 [5]; injected (1-5 μM), 3 hours): increased
- expression of active miR-122 acting on AGPAT1 reporter construct (Luciferase assay) (miR-122 [6]): increased expression of active miRNA
